From US10538516B2, “Oxadiazole derivative and pharmaceutical containing same” (National Center for Geriatrics and Gerontology, priority 2015, dated 2020)
Where two headings read alike, the source gives them in different places.

Target: T1, GAβ-dependent amyloid fibril formation (Human Aβ1-40 + GM1-containing liposome) (Homo sapiens, UniProt P05067)
T1 construct: Human Aβ1-40 (cat. #4307-v, prepared by Peptide Institute); purchased Peptide Institute 4307-v
Test: Thioflavin T (ThT) assay of GAβ-dependent amyloid fibril formation (Aβ1-40 with GM1-containing liposome)
Format: biochemical
Experimental: <3. Evaluation of the Compounds Based on the Inhibitory Activity Against Amyloid Fibril Formation in Thioflabin T (ThT) Assay>
Inhibitory activity against GAβ-dependent amyloid fibril formation of the above compounds 1 to 133 and 142 to 267 were evaluated in ThT assay.
(1) Preparation of Aβ Solution
Human Aβ1-40 (cat. #4307-v, prepared by Peptide Institute) was dissolved in a 0.02% ammonia solution (400 μM), and the mixture was treated in an ultracentrifuge (S110AT rotor, Hitachi) at 100,000 rpm for 3 hours. Approximately two-thirds of the upper layer of the supernatant was recovered and protein concentration was measured. The Aβ solution was aliquoted and stored at −80° C. until use, was melted immediately before use, and was diluted to 75 μM using phosphate buffer (PBS: cat. #10010, manufactured by Life Technologies).
(2) Preparation of GM1-Containing Liposome
Using a mixed solution of chloroform/methanol (1:1) as a solvent, a mixed solution of 100 mM each of cholesterol and sphingomyelin (both manufactured by Sigma-Aldrich) was prepared. To this mixed solution, GM 1 (cat. #1061, manufactured by Matreya Co.) was dissolved to make a solution of 50 mM concentration. This lipid mixed solution was aliquoted into glass test tubes and stored at −20° C. until use, was melted before use, was mixed with chloroform/methanol mixture (1:1) and mixed, and then the solvent was removed by applying nitrogen gas to the suspension. The dried lipid mixture was resuspended in PBS to be a GM1 concentration of 2.5 mM, and frozen and thawed 5 times with liquid nitrogen. The lipid suspension was centrifuged at 15,000 rpm for 10 minutes and the precipitate was resuspended in PBS to be a GM1 concentration of 2.5 mM. Using an ultrasonic crusher (XL-2000, MISONIX Co., Ltd.) equipped with a microchip, ultrasonic treatment was repeated on ice for 10 seconds until the suspension became transparent, and GM1-containing liposome was prepared. Immediately prior to use, PBS was added and diluted to a GM 1 concentration of 75 μM.
(3) Preparation of Compound Solution
Compounds 1 to 133 and 142 to 267 were prepared as 10 mM and 2 mM solution in DMSO, respectively. And each solution was diluted to 75 μM or 15 μM with PBS immediately prior to use.
(4) GAβ-Dependent Amyloid Fibril Formation
To a 96-well microplate, 5 μl each of the 75 μM Aβ solution prepared above (1), the compound solution prepared in (3) or 0.75% DMSO was mixed and incubated at room temperature for 10 minutes. Then, 5 μl each of 750 μM GM1-containing liposome prepared in (2) was added to each well and incubated at 37° C. for 18 hours.
ThT (manufactured by Sigma-Aldrich) was adjusted to 5 μM using 50 mM glycine-NaOH buffer (pH 8.5). Immediately before measurement, 10 μl from each well of (4) was transferred to a 96-well black plate. 50 μl of 5 μM ThT solution was added from each injector to each well using a multi-plate reader (ARVO-HTS, manufactured by Perkin Elmer), and then the optimal fluorescence of ThT bound to amyloid fiber (excitation wavelength 430 nm, fluorescence wavelength 490 nm) was measured.
The fluorescence intensity of ThT indicates the degree of amyloid fibrils formation. By calculating the ratio of the ThT fluorescence intensity between addition of the compound and without addition of the compound, the inhibition rate against amyloid fibril formation by the compound was calculated.

[1] = inhibition rate against amyloid fibril formation, final concentration of the compound 25 μM, read-out: Inhibitory activity ABC evaluation
[2] = @25 μM, read-out: ThT Inhibitory activity (% inhibition)

T1 sequence (P05067 672-711 limits assumed): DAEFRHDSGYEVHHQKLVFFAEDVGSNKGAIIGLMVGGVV

Structure (SMILES)	inhibition at 25 µM [1] [%]	inhibition at 25 µM [2] [%]
CCN(C(=O)CCc1nc(-c2ccc(OC)cc2)no1)c1cccc(Cl)c1 [Compound 7, N-(3-chlorophenyl)-N-ethyl-3-{3-(4-methoxyphenyl)-1,2,4-oxadiazol-5-yl}propanamide]	40 to 80	
O[C@@H]1C[C@@H](c2nc(-c3ccc(OC(F)(F)F)cc3)no2)N(Cc2ccc(Cl)cc2)C1 [Compound 77, (3R,5S)-1-(4-chlorobenzyl)-5-[3-{4-(trifluoro-methoxy)phenyl}-1,2,4-oxadiazol-5-yl]pyrrolidin-3-ol]	40 to 80	
O=C(N[C@@H](CO)c1nnc(-c2ccc(OC(F)(F)F)cc2)o1)c1ccc(Cl)cc1 [Compound 104, (S)-4-chloro-N-(2-hydroxy-1-{5-[4-(trifluoromethoxy)phenyl]-1,3,4-oxadiazol-2-yl}ethyl)benzamide]	40 to 80	75
COc1cccc2c(CC(=O)NCCc3nc(-c4c[nH]c5ccccc45)no3)c[nH]c12 [Compound 70, N-[2-{3-(1H-indol-3-yl)-1,2,4-oxadiazol-5-yl}ethyl]-2-(7-methoxy-1H-indol-3-yl) acetamide]	< 40	
O=C1CC(c2nc(-c3ccc(OC(F)(F)F)cc3)no2)CN1Cc1ccc(Cl)cc1 (centres unmarked) [Compound 64, 1-(4-chlorobenzyl)-4-{3-[4-(trifluoromethoxy)phenyl]-1,2,4-oxadiazol-5-yl}pyrrolidin-2-one]	40 to 80	
O=C1CC[C@@H](c2nc(-c3ccc(OC(F)(F)F)cc3)no2)N1C(=O)c1ccc(Cl)cc1 [Compound 84, (S)-1-(4-chloro-benzoyl)-5-[3-{4-(trifluoromethoxy)phenyl}-1,2,4-oxadiazol-5-yl]pyrrolidin-2-one]	40 to 80	
O=C(NC1(c2nc(-c3ccc(OC(F)(F)F)cc3)no2)CCCC1)c1ccc(Cl)cc1 [Compound 29, 4-chloro-N-(1-[3-{4-(trifluoromethoxy)phenyl}-1,2,4-oxadiazol-5-yl]cyclopentyl) benzamide]	< 40	
COc1ccc(-c2noc(CCC(=O)Nc3cccc(Cl)c3)n2)cc1 [Compound 8, N-(3-chlorophenyl)-3-{3-(4-methoxyphenyl)-1,2,4-oxadiazol-5-yl}propanamide]	< 40	
N[C@H](Cc1c[nH]c2ccccc12)c1nnc(-c2ccc(OC(F)(F)F)cc2)o1 [Compound 114, (R)-2-(1H-indol-3-yl)-1-(5-(4-(trifluoro-methoxy)phenyl)-1,3,4-oxadiazol-2-yl) ethan-1-amine]	> 80	
O=C(c1ccc(Cl)cc1)N1CC(c2nc(-c3ccc(OC(F)(F)F)cc3)no2)C1 [Compound 68, (4-chloro-phenyl)(3-[3-{4-(trifluoro-methoxy)phenyl}-1,2,4-oxadiazol-5-yl]azetidin-1-yl)methanone]	40 to 80	
N#Cc1ccc(C(=O)N[C@@H](CO)c2nc(-c3ccc(O)c(F)c3)no2)cc1 [Compound 100, (S)-4-cyano-N-(1-(3-(3-fluoro-4-hydroxyphenyl)-1,2,4-oxadiazol-5-yl)-2-hydroxy-ethyl)benzamide]	40 to 80	
O=C(NCCc1nc(-c2c[nH]c3ccccc23)no1)c1ccc(Cl)cc1 [Compound 71, N-[2-{3-(1H-indol-3-yl)-1,2,4-oxadiazol-5-yl}ethyl]-4-chloro-benzamide]	40 to 80	
O=C(NC1(c2nc(-c3ccc(OC(F)(F)F)cc3)no2)CCCC1)c1ccc(F)cc1 [Compound 30, 4-fluoro-N-(1-[3-{4-(trifluoromethoxy)phenyl}-1,2,4-oxadiazol-5-yl]cyclopentyl) benzamide]	< 40	

Results, then the compound that gave them:

inhibition at 25 µM [1] [%]	inhibition at 25 µM [2] [%]	Structure (SMILES)
40 to 80	72	CNCC(NC(=O)c1ccc(Cl)cc1)c1nnc(-c2ccc(OC(F)(F)F)cc2)o1 (centres unmarked) [Compound 118, 4-chloro-N-(2-(methylamino)-1-(5-(4-(tri-fluoromethoxy)phenyl)-1,3,4-oxadiazol-2-yl)ethyl)benzamide]
40 to 80		CCOCCOc1ccc(C(=O)N[C@@H](CO)c2nc(-c3ccc(C(F)(F)F)cc3)no2)cc1 [Compound 170]
40 to 80		O=C(c1ccc(Cl)cc1)N1CC[C@H](O)[C@H]1c1nc(-c2ccc(OC(F)(F)F)cc2)no1 [Compound 131, (4-chlorophenyl) ((2S,3S)-3-hydroxy-2-(3-(4-(trifluoro-methoxy)phenyl)-1,2,4-oxadiazol-5-yl)pyrrolidin-1-yl)methanone]
> 80		O=C(N[C@@H](CO)c1nc(-c2cccc(C(F)(F)F)c2)no1)c1cc(F)cc(Cl)c1 [Compound 222, 3-chloro-5-fluoro-N-[(1S)-2-hydroxy-1-{3-[3-(trifluoromethyl)phenyl]-1,2,4-oxadiazol-5-yl}ethyl]benzamide]
40 to 80		O=C(N[C@@H](CO)c1nc(-c2ccc3[nH]cc(F)c3c2)no1)c1ccc(F)cc1 [Compound 194, 4-fluoro-N-[(1S)-1-[3-(3-fluoro-1H-indol-5-yl)-1,2,4-oxadiazol-5-yl]-2-hydroxyethyl] benzamide]
< 40		O=C(N[C@@H](CO)c1nc(-c2cnc3ccccc3c2)no1)c1ccc(F)cc1 [Compound 173, 4-fluoro-N-[(1S)-2-hydroxy-1-[3-(quinolin-3-yl)-1,2,4-oxadiazol-5-yl]ethyl] benzamide]
40 to 80		CCOCCOc1ccc(C(=O)N[C@@H](CO)c2nc(-c3ccc(OC(F)(F)F)cc3)no2)cc1 [Compound 169, 4-(2-ethoxyethoxy)-N-[(1S)-2-hydroxy-1-{3-[4-(trifluoromethoxy)phenyl]-1,2,4-oxadiazol-5-yl}ethyl] benzamide]
40 to 80	70	O=C(N[C@@H](CO)c1nc(-c2ccc(C(F)(F)F)cc2)no1)c1c(F)cccc1F [Compound 197, 2,6-difluoro-N-[(1S)-2-hydroxy-1-{3-[4-(trifluoromethyl)phenyl]-1,2,4-oxadiazol-5-yl}ethyl]benzamide]
40 to 80		O=C(N[C@H](CO)c1nnc(-c2ccc(OC(F)(F)F)cc2)o1)c1ccc(Cl)cc1 [Compound 107, (R)-4-chloro-N-(2-hydroxy-1-(5-(4-(trifluoro-methoxy)phenyl)-1,3,4-oxzdiazol-2-yl)ethyl)benzamide]
< 40		O=C(N[C@@H](CO)c1nc(-c2ccc(F)cc2Cl)no1)c1ccc(F)cc1 [Compound 219, N-[(1S)-1-[3-(2-chloro-4-fluorophenyl)-1,2,4-oxadiazol-5-yl]-2-hydroxyethyl]-4-fluorobenzamide]
40 to 80		O=C(NC(CN1CCOCC1)c1nnc(-c2ccc(OC(F)(F)F)cc2)o1)c1ccc(Cl)cc1 (centres unmarked) [Compound 117, 4-chloro-N-(2-morpholino-1-(5-(4-(trifluoro-methoxy)phenyl)-1,3,4-oxadiazol-2-yl)ethyl) benzamide]
40 to 80		O=C(N[C@@H](CO)c1nnc(-c2ccc(OC(F)(F)F)cc2)o1)c1ccc(F)cc1 [Compound 112, (S)-4-fluoro-N-(2-hydroxy-1-(5-(4-(tri-fluoromethoxy)phenyl)-1,3,4-oxadiazol-2-yl)ethyl)benzamide]
40 to 80		O=C(N[C@@H](CO)c1nc(-c2ccc(Br)cc2)no1)c1ccc(F)cc1 [Compound 163, N-[(1S)-1-[3-(4-bromophenyl)-1,2,4-oxadiazol-5-yl]-2-hydroxyethyl]-4-fluorobenzamide]
< 40		N[C@@H](Cc1c[nH]c2ccccc12)C(=O)N[C@@H](CO)c1nc(-c2ccc(C(F)(F)F)cc2)no1 [Compound 241, (2S)-2-amino-N-[(1S)-2-hydroxy-1-{3-[4-(trifluoromethyl)phenyl]-1,2,4-oxadiazol-5-yl}ethyl]-3-(1H-indol-3-yl)propanamide]
> 80	89	O=C(N[C@@H](CO)c1nc(-c2c[nH]c3ccccc23)no1)c1ccc(F)cc1 [Compound 211, 4-fluoro-N-[(1S)-2-hydroxy-1-[3-(1H-indol-3-yl)-1,2,4-oxadiazol-5-yl]ethyl]benzamide]
